# Data taken from patent US8653023B1, “Dual beneficial effect of dopamine enhancing and neuroprotective actions of PKC delta inhibitors for treatment of Parkinson's disease” (Iowa State University Research Foundation, Inc., priority 2006, dated 2014).
# Tests used:
# [1] = system: tyrosine hydroxylase (TH); test: TH activity (DOPA levels after NSD-1015) in N27 cells; assay type: cell-based, rat; details: 2 mM NSD-1015, rottlerin 3 hr vs DMSO, PKCδ-DN vs LacZ
# Method: Plasmid pPKCδ^K376R-V5 encodes the loss of function PKCδ-V5 epitope tagged mutant protein; K376R refers to the mutation of the lysine residue at position 376 to arginine in the catalytic site resulting in inactivation of the kinase. Plasmid pLacZ-V5 encodes the β-galactosidase protein alone with a V5-epitope and is used as a vector control. N27 cells stably expressing PKCδ^K376R-V5 (herein referred to as PKCδ-DN cells) and LacZ alone-expressing cells (LacZ cells) were cultured as described previously (Kitazawa et al., 2005). PKCδ-DN or LacZ expressing N27 cells were identified by immunostaining of the C-terminal V5 epitope on expressed proteins and were differentiated with cAMP analogs (e.g. dibutyral cAMP) prior to experiments. PKCδ-DN and LacZ were also transiently expressed in mouse primary mesencephalic neurons using an AMAXA® Nucleofector™ kit (AMAXA GmbH, Germany). As described above, primary mesencephalic neurons were prepared from the midbrain of 16-18-day-old mice embryos. After digestion with trypsin-EDTA-HBSS, the primary neurons were homogenously resuspended with transfection buffer provided with the kit to a final concentration of 4-5×10^6 neurons/100 μl and mixed with 1 μg plasmid DNA encoding either PKCδ-DN-V5 or LacZ-V5. […] Transfection efficiency was >75% as determined by immunostaining of V5-expression. […]
# [2] = system: casein kinase II; details: cited from earlier work
# [3] = target: CAM kinase III (Homo sapiens, UniProt O00418); details: cited from earlier work
# [4] = target: SRC kinase (Homo sapiens, UniProt P12931); details: cited from earlier work
# [5] = system: tyrosine hydroxylase (TH); test: TH phosphorylation in PC12 cells (immunoblot, immunofluorescence); assay type: cell-based; details: 3 μM rottlerin for 3 hr
# Method: (§1) PC12 cells, differentiated N27 dopaminergic cells and primary mesencephalic neurons were exposed to 1-10 μM rottlerin for the duration of the experiment. DMSO (0.01%) was used as vehicle control. PKCδ-DN- and Lac Z-expressing N27 cells were only treated with 0.01% DMSO. […] Untreated or vehicle treated cells were used as control samples.
# Cell and brain lysates containing equal amounts of protein were loaded in each lane and separated on a 10-12% SDS-PAGE gel as described previously (Kaul et al., 2003). After the separation, proteins were transferred to nitrocellulose membrane, and nonspecific binding sites were blocked by treating with 5% nonfat dry milk powder. The membranes were then treated with primary antibodies directed against PKCδ (rabbit polyclonal or mouse monoclonal, 1:2000 dilution), TH (rabbit polyclonal or mouse monoclonal, 1:1000), phospho TH-ser40 (rabbit polyclonal, 1:1000), phospho TH-ser31 TH (rabbit polyclonal, 1:1000), or PP2A (mouse monoclonal, 1:1000). The primary antibody treatments were followed by treatment with secondary HRP-conjugated anti-rabbit or anti-mouse IgG (1:2000) for 1 hr at RT. Secondary antibody-bound proteins were detected using Amersham's ECL chemiluminescence kit. To confirm equal protein loading, blots were reprobed with a β-actin antibody (1:5000 dilution). Western blot images were captured with a Kodak 2000 MM imaging system and data were analyzed using 1D Kodak imaging analysis software.
# Immunostaining of PKCδ, TH, Ser40 P-TH and Ser31 P-TH was performed in PC12, N27 and primary mesencephalic neurons. Cells were grown on poly-L-Lysine-coated glass cover slips. After treatment, the cells were fixed with 4% paraformaldehyde and processed for immunohistochemical staining. First, non-specific sites were blocked with 5% normal goat serum containing 0.4% BSA and 0.2% Triton-X 100 in PBS for 20 min. Cells were then incubated with antibodies directed against PKCδ (1:500 dilution), TH (1:500 dilution), and P-THSer40 (1:500 dilution) overnight at 4° C. followed by incubation with either Alexa 488-conjugated (green, 1:1000) or Cy3-conjugated (red, 1:1000) secondary antibody for 1 hr at RT. Secondary antibody treatments were followed by incubation with Hoechst 33342 (10 μg/ml) for 3 min at room temperature to stain the nucleus. Then the coverslips containing stained cells were washed with PBS, mounted on a slide, and viewed under a Nikon inverted fluorescence microscope (Model TE-2000U); images were captured with a SPOT digital camera (Diagnostic Instruments, Sterling Heights, Mich.).
# [6] = system: PKCδ; details: pretreatment, dose-dependent; cited from earlier work
# [7] = system: tyrosine hydroxylase (TH); test: TH activity (DOPA levels after NSD-1015) in PC12 cells; assay type: cell-based; details: 2 mM NSD-1015
# Method: as §1
# [8] = system: PP2A; test: PP2A phosphatase activity in N27 cells (Serine/Threonine phosphatase assay kit); assay type: cell-based, rat; details: rottlerin vs DMSO, PKCδ-DN vs LacZ
# Method: To determine PP2A phosphatase activity, we used the Serine/Threonine phosphatase assay kit from Promega. Briefly, N27 cells and substantia nigral tissue from mouse brain were homogenized in lysis buffer (25 mM Tris-HCl, 10 mM β-mercaptoethanol, 2 mM EDTA, protease inhibitor) supplied with the kit. After centrifugation, the supernatants were used for the assay. PP2A activity was determined by measuring the amount of free phosphate generated in a reaction by measuring the absorbance of a molybdate:malachite green: phosphate complex at 600 nm using the Spectramax plate reader (Molecular Devices). The effective range for the detection of phosphate released in this assay is 100-4,000 pmol of phosphate.
# [9] = system: MPTP-treated C57 black mice; test: Locomotor activity of MPTP-treated mice (VersaMax); assay type: in vivo; details: rottlerin 20 mg/kg + MPTP 30 mg/kg 5 days
# Source text: Behavioral data were collected using VersaMax Animal Activity Monitors (AccuScan Model RXYZCM-16, Columbus, Ohio). Each chamber was 40×40×30.5 cm^3, made of clear Plexiglas and covered with a Plexiglas lid with air-holes. Infrared monitoring sensors were located every 2.54 cm along the perimeter (16 infrared beams along each side) and 2.5 cm above the floor. Two additional sets of 16 sensors were located 8.0 cm above the floor on opposite sides. Data were collected and analyzed by a VersaMax Analyzer (AccuScan Model CDA-8, Columbus, Ohio) which in turn sent information to an IBM computer where it was stored for future analyses. Locomotor activity was presented as horizontal movement and vertical movement. All data are expressed as percent of the vehicle-treated control group (mean 6 SEM) and were obtained 1 day after MPTP or vehicle treatment in a 20-min test session.
# [10] = system: bone marrow-derived macrophages; details: cited from earlier work
# Chain of SRC kinase (P12931 whole entry): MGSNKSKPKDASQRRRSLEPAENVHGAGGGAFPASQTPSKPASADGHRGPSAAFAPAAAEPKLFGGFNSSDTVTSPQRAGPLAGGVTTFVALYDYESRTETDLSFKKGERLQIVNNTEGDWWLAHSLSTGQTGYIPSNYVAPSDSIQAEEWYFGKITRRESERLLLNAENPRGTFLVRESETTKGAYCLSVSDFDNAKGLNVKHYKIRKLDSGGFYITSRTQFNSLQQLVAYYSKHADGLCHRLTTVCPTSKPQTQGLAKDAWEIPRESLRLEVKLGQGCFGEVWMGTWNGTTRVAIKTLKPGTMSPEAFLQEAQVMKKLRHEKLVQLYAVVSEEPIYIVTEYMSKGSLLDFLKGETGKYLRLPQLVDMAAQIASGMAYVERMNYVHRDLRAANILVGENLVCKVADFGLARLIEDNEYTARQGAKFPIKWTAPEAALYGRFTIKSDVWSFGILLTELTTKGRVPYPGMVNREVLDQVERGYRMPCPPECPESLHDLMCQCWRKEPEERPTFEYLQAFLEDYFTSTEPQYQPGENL
# Chain of CAM kinase III (O00418 whole entry): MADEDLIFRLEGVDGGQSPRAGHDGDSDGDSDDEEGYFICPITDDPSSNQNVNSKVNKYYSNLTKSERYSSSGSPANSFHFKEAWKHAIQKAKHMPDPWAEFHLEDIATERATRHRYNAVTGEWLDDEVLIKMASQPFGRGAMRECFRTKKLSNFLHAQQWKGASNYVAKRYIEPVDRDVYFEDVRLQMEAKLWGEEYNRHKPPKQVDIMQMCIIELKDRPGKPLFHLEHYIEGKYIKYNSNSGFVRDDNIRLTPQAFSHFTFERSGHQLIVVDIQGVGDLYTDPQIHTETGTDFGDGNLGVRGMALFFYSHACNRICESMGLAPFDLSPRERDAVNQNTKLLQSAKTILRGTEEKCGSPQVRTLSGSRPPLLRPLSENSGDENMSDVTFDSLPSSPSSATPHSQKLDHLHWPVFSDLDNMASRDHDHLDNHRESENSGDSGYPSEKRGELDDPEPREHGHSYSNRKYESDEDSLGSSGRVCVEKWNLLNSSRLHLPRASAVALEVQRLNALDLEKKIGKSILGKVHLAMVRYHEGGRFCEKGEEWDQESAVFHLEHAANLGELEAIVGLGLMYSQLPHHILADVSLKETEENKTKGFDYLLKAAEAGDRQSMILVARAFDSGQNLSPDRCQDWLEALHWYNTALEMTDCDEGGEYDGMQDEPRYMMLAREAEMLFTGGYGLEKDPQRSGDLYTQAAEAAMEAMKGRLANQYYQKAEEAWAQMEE
smiles,measurement,setting,value
CC(=O)c1c(O)c(C)c(O)c(Cc2c(O)c3c(c(C(=O)/C=C/c4ccccc4)c2O)OC(C)(C)C=C3)c1O [rottlerin],TH activity,[1],3025±266.7 pg DOPA/10^6 cells/hr
same,inhibition,[2],weak inhibitor
same,inhibiting concentration,[3],3 to 6 µM
same,inhibition,[4],inactive
same,"TH-ser40 phosphorylation, densitometry of 60 kDa band, increase versus vehicle",[5],3 fold
same,THser31 phosphorylation level,[5],unaltered
same,level of total TH,[5],unaltered
same,increase in TH-ser40 stained cells compared to DMSO-treated cells,[5]; immunofluorescence cell count,333%
same,MMT induced accumulation of PKCδ cleavage product and increased kinase activity,[6],prevented
same,TH activity,[7]; 1 μM rottlerin 3 hr,2091.09±80.17 pg DOPA/10^6 cells/hr
same,TH activity,[7]; 3 μM rottlerin 3 hr,3045±75.31 pg DOPA/10^6 cells/hr
same,reduction of PP2A activity,[8],31%
same,"horizontal movement, percent of vehicle-treated control",[9],76.93%
same,"vertical movement, percent of vehicle-treated control",[9],79%
same,silica-induced apoptosis as measured by DNA fragmentation,[10],reduced
